The values below come from patent US20080039320A1 (priority 2004, published 2008).

The test system of test [1] is Puccinia recondita. Briefly: Protective activity against brown rust of wheat, menadione watered in, partner sprayed 6 days later (Use Example 2). The format is in vivo. To be noted: wheat seedlings. How it is done:
(§1) The active compounds were prepared separately as a stock solution with 0.25% by weight of active compound in acetone or DMSO. 1% by weight of the emulsifier Uniperol® EL (wetting agent having emulsifying and dispersing action based on ethoxylated alkylphenols) was added to this solution, and the mixture was diluted with water to the desired concentration.
(§2) The visually determined percentages of infected leaf areas were converted into efficacies in % of the untreated control:
(§3) The efficacy (E) is calculated as follows using Abbot's formula: E=(1−α/β)·100 α corresponds to the fungicidal infection of the treated plants in % and β corresponds to the fungicidal infection of the untreated (control) plants in % An efficacy of 0 means that the infection level of the treated plants corresponds to that of the untreated control plants; an efficacy of 100 means that the treated plants were not infected.
(§4) The expected efficacies of active compound combinations were determined using Colby's formula (Colby, S. R. “Calculating synergistic and antagonistic responses of herbicide combinations”, Weeds, 15, 20-22, 1967) and compared with the observed efficacies.
Colby's formula: E=x+y−x·y/100 […]

Test [2] concerns Puccinia recondita. Put plainly: 6 day protective activity against brown rust of wheat, foliar spray (Use Example 4). To be noted: wheat seedlings. The format is in vivo. As to the method: as §1, §2, §3, §4
(§5) Colby's formula: E=x+y−x·y/100
6 Day Protective Activity Against Puccinia recondita on Wheat (Brown Rust of Wheat) Leaves of potted wheat seedlings of the cultivar “Kanzler” were sprayed to runoff point with an aqueous suspension having the concentration of active compound stated below. After six days, the treated plants were inoculated with a spore suspension of brown rust of wheat (Puccinia recondite). The plants were then placed in a chamber of high atmospheric humidity (90 to 95%) at 20 to 22° C. for 24 hours. During this time, the spores germinated and the germ tubes penetrated into the leaf tissue. The next day, the test plants were returned to the greenhouse and cultivated at temperatures between 20 and 22° C. and at 65 to 70% relative atmospheric humidity for a further 7 days. The extent of the rust fungus development on the leaves was then determined visually.

The test system of test [3] is Erysiphe [syn. Blumeria] graminis forma specialis. tritici. Put plainly: Activity against mildew of wheat, 6 day protective application (Use Example 6). Particulars: wheat seedlings. The format is in vivo. As to the method:
as §1, §2, §3, §4, §5
Activity Against Mildew of Wheat Caused by Erysiphe [syn. Blumeria] graminis Forma Specialis. Tritici, 6 Day Protective Application Leaves of potted wheat seedlings of the cultivar “Kanzler” were sprayed to runoff point with an aqueous suspension having the concentration of active compound stated below. The suspension or emulsion had been prepared as described above. 6 days after the application of the active compound, the plants were dusted with spores of mildew of wheat (Erysiphe [syn. Blumeria] graminis forma specialis. tritici). The test plants were then placed in a greenhouse at temperatures between 20 and 24° C. and at 60 to 90% relative atmospheric humidity. After 7 days, the extent of the mildew development was determined visually in % infection of the total leaf area.

The next test deals with Phytophthora infestans. It counts as in vivo. Particulars: tomato plants.
Another test concerns Pyricularia oryzae. It counts as in vivo. Particulars: rice seedlings.
For a further test, the system named is Pyrenophora teres. Briefly: Activity against net blotch of barley, 6 day protective application (Use Example 3). The format is in vivo, Pyrenophora [syn. Drechslera] teres. To be noted: barley seedlings. How it is done: as §1, §2, §3, §4, §5
Activity Against Net Blotch of Barley Caused by Pyrenophora teres, 6 Day Protective Application Leaves of potted barley seedlings were sprayed to runoff point with an aqueous suspension having the concentration of active compound stated below. After 6 days, the test plants were inoculated with an aqueous spore suspension of Pyrenophora [syn. Drechslera] teres, the net blotch pathogen. The test plants were then placed in a greenhouse at temperatures between 20 and 24° C. and 95 to 100% relative atmospheric humidity. After 6 days, the extent of the development of the disease was determined visually in % infection of the total leaf area.

The next test relates to phytopathogenic fungi. Briefly: Fungicidal tests, overall statements. The format is in vivo. Particulars: menadione on its own. How it is done: as §1, §2
The efficacy (E) is calculated as follows using Abbot's formula: E=(1−α/β)·100
as §4, §5

Like-named read-outs stand apart in the source and are kept apart here.

For the compound `CC1CCN(c2c(-c3c(F)cc(F)cc3F)c(Cl)nc3ncnn23)CC1` [compound A, 5-Chloro-7-(4-methylpiperidin-1-yl)-6-(2,4,6-trifluorophenyl)-[1,2,4]triazolo[1,5-a]pyrimidine], the “Observed effect (%)” value came to 25% in the test on Puccinia recondita [1] (4 ppm, sprayed to runoff) and 22% with Puccinia recondita [2] (63 ppm).

In the case of “zinc ammoniate ethylenebis(dithiocarbamate) [metiram]”, the “Observed effect (%)” value in test [3] (63 ppm) came out at 0%.

With `COc1ccc(C(=CC(=O)N2CCOCC2)c2ccc(Cl)cc2)cc1OC` [dimethomorph, 3-(4-chlorophenyl)-3-(3,4-dimethoxyphenyl)-1-morpholin-4-ylpropenone], the “Observed effect (%)” value in the test with Phytophthora infestans (16 ppm) worked out at 37%.

In the case of `O=C(Nc1ccccc1-c1ccc(Cl)cc1)c1cccnc1Cl` [boscalid, 2-chloro-N-(4′-chlorobiphenyl-2-yl)nicotinamide], the “Observed effect (%)” value in the test with Puccinia recondita [2] (63 ppm) was 22%.

Turning to `COc1cc(C)c(C(=O)c2c(OC)ccc(Br)c2C)c(OC)c1OC` [metrafenone, 3′-bromo-2,3,4,6′-tetramethoxy-2′,6-dimethylbenzophenone], the “Observed effect (%)” value in test [3] (63 ppm) was 67%.

For the compound `Fc1ccc([C@]2(Cn3cncn3)O[C@H]2c2ccccc2Cl)cc1` (racemic) [epoxiconazole, (2RS,3SR)-1-[3-(2-chlorophenyl)-2,3-epoxy-2-(4-fluorophenyl)propyl]-1H-1,2,4-triazole], the “Observed effect (%)” value with Puccinia recondita [2] (1 ppm) worked out at 22%.

`COC(=O)N(OC)c1ccccc1COc1ccn(-c2ccc(Cl)cc2)n1` [pyraclostrobin, methyl N-{2-[1-(4-chlorophenyl)-1H-pyrazol-3-yloxymethyl]phenyl}(N-methoxy)carbamate]: the “Observed effect (%)” value with Pyricularia oryzae (1 ppm, applied 1 day before inoculation) turned out to be 20%.

For `CC1=CC(=O)c2ccccc2C1=O` [menadione, 2-methyl-1,4-naphthoquinone], the “Observed effect (%)” value with Phytophthora infestans (63 ppm) is listed as 27%; in the test with Pyrenophora teres (16 ppm), 0%; in the test on Pyrenophora teres (63 ppm), 0%; in the test on Puccinia recondita [1] (3.6%, watered with 2 ml aqueous suspension comprising 71 mg) it was 0%; in the test on Pyricularia oryzae (250 ppm, efficacy in % of untreated control (Abbot)), 0%; in test [3] (16 ppm), 0%. In addition, the “Observed effect (%)” value with Puccinia recondita [2] (1 ppm) was 0%; in the test on Puccinia recondita [2] (16 ppm), 25%. The “fungicidal action against phytopathogenic fungi” value with phytopathogenic fungi is “no fungicidal action”.

As to `CC(C)NC(=O)N1CC(=O)N(c2cc(Cl)cc(Cl)c2)C1=O` [iprodione, N-isopropyl-3-(3,5-dichlorophenyl)-2,4-dioxoimidazolidine-1-carboxamide], the “Observed effect (%)” value in the test with Pyrenophora teres (250 ppm) was 22%.
